Consider 13 compounds from US11149036B2, “3-(1H-pyrazol-4-yl)pyridine allosteric modulators of the M4 muscarinic acetylcholine receptor” (Merck Sharp & Dohme Corp., priority 2017, dated 2021).

Structures are written as SMILES.

This assay deals with T1, human M4 muscarinic acetylcholine receptor (Homo sapiens, UniProt P08173).
T1 construct: expressed in transfected cells; host or cells: CHO-K1
T1 sequence (P08173 1-479): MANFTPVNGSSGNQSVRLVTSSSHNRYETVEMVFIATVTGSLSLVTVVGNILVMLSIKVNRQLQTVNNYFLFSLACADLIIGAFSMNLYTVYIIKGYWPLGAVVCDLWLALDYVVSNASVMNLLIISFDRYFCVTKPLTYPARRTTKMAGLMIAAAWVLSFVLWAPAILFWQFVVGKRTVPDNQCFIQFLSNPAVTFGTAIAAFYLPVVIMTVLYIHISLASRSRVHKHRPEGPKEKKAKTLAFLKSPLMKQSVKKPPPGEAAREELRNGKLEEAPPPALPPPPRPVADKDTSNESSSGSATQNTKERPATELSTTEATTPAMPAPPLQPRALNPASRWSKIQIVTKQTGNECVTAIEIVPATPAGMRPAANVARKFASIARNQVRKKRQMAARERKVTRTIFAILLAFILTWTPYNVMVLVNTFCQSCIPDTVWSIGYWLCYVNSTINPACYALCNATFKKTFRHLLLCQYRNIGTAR
Kind of assay: human FLIPR-based M4 PAM assay (CHO-K1 cells with human M4 receptor and Gaqi5, calcium dye fluorescence). The assay is classed as cell-based. Particulars: inflection point (IP) of dose response curve, acetylcholine added at 20% of maximum response, read-out: M4 FLIPPR Hu IP. In a few lines:
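CHO-K1 cells stably expressing human M4 with chimeric Gaqi5, calcium-dye loaded ~1 h at 37° C; compound added at increasing concentrations 4 min before acetylcholine at an EC20 concentration (sometimes a further EC70 addition).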
Consider `N#Cc1ccc(-c2cnn(C[C@H]3CC[C@H](F)C3)c2)c(-c2ccc3cccnc3c2)n1` [Example 68, 5-(1-(((1S,3S)-3-fluorocyclopentyl)methyl)-1H-pyrazol-4-yl)-6-(quinolin-7-yl)picolinonitrile], for which the EC50 was 38 nM.

For the compound `Cc1ccc(-c2cnn(CC3(C)CCCC3)c2)c(-c2ccc3c(c2)C(=O)OC3)n1` [Example 33, 6-(6-methyl-3-(1-((1-methylcyclopentyl)methyl)-1H-pyrazol-4-yl)pyridin-2-yl) isobenzofuran-1(3H)-one], the EC50 was 35 nM.

`Cc1cnc(-c2ccn3ncnc3c2)c(-c2cnn(CC3(C)CCCC3)c2)c1` [Example 113, 7-(5-methyl-3-(1-((1-methylcyclopentyl)methyl)-1H-pyrazol-4-yl)pyridin-2-yl)-[1,2,4]triazolo[1,5-a] pyridine]: the EC50 was 79 nM.

Take `Cc1nc2cc(-c3ncc(F)cc3-c3cnn(CC4(F)CCCC4)c3)ccc2n1C` [Example 99, 5-(5-fluoro-3-(1-((1-fluorocyclopentyl)methyl)-1H-pyrazol-4-yl)pyridin-2-yl)-1,2-dimethyl-1H-benzo[d]imidazole]: the EC50 was determined as 83 nM.

For the compound `N#Cc1ccc(-c2cnn(CC3(F)CCCC3)c2)c(-c2ccn3cc(Cl)nc3c2)n1` [Example 52, 6-(2-chloroimidazol[1,2-a]pyridin-7-yl)-5-(1-((1-fluorocyclopentyl)methyl)-1H-pyrazol-4-yl)picolinonitrile], the EC50 was found to be 10 nM.

Regarding `FC(F)Oc1ccc(-c2cnn(CC3CCCC3)c2)c(-c2ccc3cccnc3c2)n1` [Example 166, 7-(3-(1-(cyclopentylmethyl)-1H-pyrazol-4-yl)-6-(difluoromethoxy)pyridin-2-yl)quinoline], the EC50 was 26 nM.

For `Cc1cn2ccc(-c3ncc(F)cc3-c3cnn(CC4(F)CCCC4)c3)cc2n1` [Example 96, 7-(5-fluoro-3-(1-((1-fluorocyclopentyl)methyl)-1H-pyrazol-4-yl)pyridin-2-yl)-2-methylimidazo[1,2-a] pyridine], the EC50 was found to be 35 nM.

`N#Cc1ccc(-c2cnn(CC3(F)CCCC3)c2)c(-c2ccn3cc(C(F)(F)F)nc3c2)n1` [Example 51, 5-(1-((1-fluorocyclopentyl)methyl)-1H-pyrazol-4-yl)-6-(2-(trifluoromethyl)imidazo [1,2-a]pyridin-7-yl)picolinonitrile]: the EC50 stood at 22 nM.

For `Cc1cc(-c2cnn(CC3(F)CCCC3)c2)c(-c2cnc3c(c2)ncn3C)nc1Cl` [Example 117, 6-(6-chloro-3-(1-((1-fluorocyclopentyl)methyl)-1H-pyrazol-4-yl)-5-methylpyridin-2-yl)-3-methyl-3H-imidazo[4,5-b]pyridine], the EC50 was found to be 45 nM.

For `Cc1ccc(-c2cnn(C[C@@H]3CC[C@H](F)C3)c2)c(-c2ccc3cccnc3c2)n1` (single isomer, unassigned) [Example 133, 7-(3-(1-(((1R,3S) or (1S,3R)-3-fluorocyclopentyl)methyl)-1H-pyrazol-4-yl)-6-methylpyridin-2-yl)quinoline], the EC50 was 17 nM.

With `Cc1nc2cc(-c3nc(C#N)c(C)cc3-c3cnn(CC4(F)CCCC4)c3)ccn2n1` [Example 141, 5-(1-((1-fluorocyclopentyl)methyl)-1H-pyrazol-4-yl)-3-methyl-6-(2-methyl-[1,2,4]triazolo[1,5-a]pyridin-7-yl)picolinonitrile], the EC50 amounted to 50 nM.

For the compound `O=C1c2cc(-c3ncccc3-c3cnn(CC4(F)CCCC4)c3)ccc2CN1C1CCC1` [Example 139, 2-cyclobutyl-6-(3-(1-((1-fluorocyclopentyl)methyl)-1H-pyrazol-4-yl)pyridin-2-yl)isoindolin-1-one], the EC50 amounted to 17 nM.

As to `CC1(Cn2cc(-c3ccc(C#N)nc3-c3ccn4nc(CF)nc4c3)cn2)CCCC1` [Example 78, 6-(2-(fluoromethyl)-[1,2,4]triazolo[1,5-a]pyridin-7-yl)-5-(1-((1-methylcyclopentyl)methyl)-1H-pyrazol-4-yl)picolinonitrile], the EC50 was determined as 29 nM.
